Measurements reported in US10702513B2, “Methods of treating pain and inducing analgesia” (NEW YORK UNIVERSITY, priority 2012, dated 2020).
“Also recorded” adds a separate entry of the source. Where two headings read alike, the source gives them in different places.

How the values were obtained:
SNI-treated rats [1] = assay: Sucrose preference test (depression-like behavior) after intra-NAc administration, SNI model; format: in vivo, rat
Source text: After SNI, rats develop sensory hypersensitivity, as measured by increased withdrawal response to von Frey filaments (mechanical allodynia) and acetone (cold allodynia) (FIG. 5) (Wang, et al. Anesthesiology 2011; 115: 812-821). The sucrose preference test (SPT) and forced swim test (FST) are used to assess depression. Preference for sucrose over water is a normal hedonic response in rats, whereas a decreased sucrose preference on the SPT represents anhedonia, a typical feature of depression. […] Sham-operated rats only develop depression-like behavior in the immediate postoperative period (FIG. 6C), due to acute incisional pain. These experiments were repeated in the PI model, and sensory and depressive symptoms both develop within 24 hours after paw incision and resolve 7 days later (FIG. 7). Thus, in animal models both acute and chronic postoperative pain cause depressive behavior.
(§1) To block CPARs locally in the NAc, microcannulas were stereotactically implanted bilaterally into the NAc, a technique well established (Carr, et al., Neuroscience 2010; 165: 1074-86). The NAc has anatomically distinct core and shell regions, both of which are involved in mood regulation. […] Sensory hypersensitivity was measured using von Frey filaments (Wang, et al. Anesthesiology 2011; 115: 812-821), whereas locomotion tests were performed using standard protocols (Carr, et al., Pschopharmacology (Berl) 2009; 201: 495-506).

SNI-treated rats [2] = assay: Mechanical hypersensitivity / allodynia (von Frey filaments), SNI model; format: in vivo, rat; conditions: for sensory hypersensitivity: administered directly into the NAc; for mechanical allodynia: 30 minutes after drug
Procedure: as §1
(§2) The Spared Nerve Injury (SNI) surgery was previously described in detail (Wang et al. Anesthesiology 2011, 115: 812-821). Briefly, under Isoflurane anesthesia (1.5 to 2%), the skin on the lateral surface of the right thigh of rat was incised and a section made through the biceps femoris muscle to expose three branches of the sciatic nerve: sural, common peroneal and tibial nerves. The common peroneal and tibial nerves were tied with non-absorbent 5.0 silk sutures at the point of trifurcation. The nerves were then cut distal to the knot, and about 3 to 5 mm of the distal ends were removed. Muscle layer was then sutured close, while skin was stapled. Staples were removed prior to behavioral testing.
A traditional Dixon up-down method with von Frey filaments was used to measure mechanical allodynia (Wang et al. Anesthesiology 2011, 115: 812-821). In brief, rats were individually placed into plexiglass chambers over a mesh table and acclimated for 20 min before the onset of examination. Beginning with 2.55 g, von Frey filaments in a set with logarithmically incremental stiffness (0.45, 0.75, 1.20, 2.55, 4.40, 6.10, 10.50, 15.10 g) were applied to the lateral ⅓ of right paws (in the distribution of the sural nerve) of animals at least 14 days after SNI surgery, and observers were blinded to the test conditions (CX546 vs. DMSO treatments).

[3] = target: GluA2-lacking AMPA receptors (Homo sapiens, UniProt P42261); conditions: cited from earlier work; for potentiation of CPARs and calcium impermeable AMPA receptors: literature (Sekiguchi 2002; Quirk 2002)
SNI-treated rats [4] = assay: Forced swim test, SNI model; format: in vivo, rat; conditions: 10 mg/kg intraperitoneal, vs DMSO
Source text: as §2
On the first session of the test, each animal was placed for fifteen minutes into a standard clear Porsolt chamber with water at 25° C. filled to 25 cm. Afterwards, the animal was taken out of the chamber, dried and put back in its home cage. 24 hours later, the animal was placed into the Porsolt chamber again under the same conditions for 5 min. Both sessions were videotaped, but only the second session was analyzed. Immobility was defined as a lack of movement of the hind paws lasting greater than 1 second. Two independent observers, examined and graded the total time of immobility for each rat, and the average grade was presented for each animal. FST was conducted 14 days after surgeries. […]

SNI-treated rats [5] = assay: Cold hypersensitivity / allodynia (acetone), SNI model; format: in vivo, rat
Source text: as §2, with “Briefly,” for “The Spared Nerve Injury (SNI) surgery was previously described in detail (Wang et al. Anesthesiology 2011, 115: 812-821). Briefly,”
Animals were individually placed into plexiglass chambers as above and acclimated for 20 min. A drop of acetone was applied to the lateral plantar surface of the paws (in the distribution of the sural nerve). […] 0: no visible response or startle response lasting <0.5 second; 1: paw withdrawal lasting <5 seconds; 2: withdrawal lasting 5 to 10 seconds, +/− licking of the paws; 3: prolonged repetitive withdrawal lasting >10 s. Acetone was applied 5 times to each paw, and an average score was calculated.

[6] = cited from earlier work; for antidepressant effects: literature (Sekiguchi 2002; Quirk 2002); for antidepressant effect on pain-induced depression: SNI model, Wang et al. 2011
SNI-treated rats [7] = conditions: Wang et al. 2011; cited from earlier work
GluA1 = conditions: Li et al. 2010; cited from earlier work
[8] = administered directly into the NAc, SNI-treated rats, vs saline
[9] = 10 mg/kg intraperitoneal, SNI rats, vs DMSO
[10] = injected into NAc core, SNI-treated rats

GluA2-lacking AMPA receptors, sequence (P42261 19-906): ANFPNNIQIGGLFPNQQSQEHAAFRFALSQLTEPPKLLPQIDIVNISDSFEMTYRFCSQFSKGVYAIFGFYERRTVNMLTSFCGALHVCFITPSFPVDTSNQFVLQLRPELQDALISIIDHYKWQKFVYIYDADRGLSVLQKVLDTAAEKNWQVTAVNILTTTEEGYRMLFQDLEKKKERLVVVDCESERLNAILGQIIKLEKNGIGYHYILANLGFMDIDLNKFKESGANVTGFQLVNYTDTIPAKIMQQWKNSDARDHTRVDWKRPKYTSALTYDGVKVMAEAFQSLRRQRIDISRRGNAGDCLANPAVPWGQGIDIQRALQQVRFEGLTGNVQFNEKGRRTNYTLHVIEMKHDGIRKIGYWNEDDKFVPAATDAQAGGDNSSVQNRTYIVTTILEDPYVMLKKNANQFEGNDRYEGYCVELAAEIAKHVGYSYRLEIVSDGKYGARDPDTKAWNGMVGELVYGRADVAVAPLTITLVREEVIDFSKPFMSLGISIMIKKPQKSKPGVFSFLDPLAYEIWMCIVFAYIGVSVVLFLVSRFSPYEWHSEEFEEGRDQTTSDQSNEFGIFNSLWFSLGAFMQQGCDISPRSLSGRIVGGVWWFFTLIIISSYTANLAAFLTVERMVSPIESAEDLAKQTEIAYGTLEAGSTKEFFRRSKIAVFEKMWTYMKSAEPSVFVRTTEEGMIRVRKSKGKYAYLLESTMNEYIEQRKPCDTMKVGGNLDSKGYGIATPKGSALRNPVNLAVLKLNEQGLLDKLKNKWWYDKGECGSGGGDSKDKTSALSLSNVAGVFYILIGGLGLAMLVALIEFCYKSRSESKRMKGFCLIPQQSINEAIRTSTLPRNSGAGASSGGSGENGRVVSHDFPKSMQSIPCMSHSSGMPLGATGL

In the case of `O=C1CCCN1` [2-pyrrolidinone], the “sucrose preference (depression-like behavior)” value (SNI-treated rats [1]; [8]) is given as “increased sucrose; also recorded: return of sucrose preference to near control (painless) levels”, the sensory hypersensitivity (SNI-treated rats [2]; SNI-treated rats) is given as “did not have any effect; also recorded: unaltered” and the “currents of GluA2-lacking AMPA receptors (CPAR currents)” value ([3]; in vitro, Nishizaki et al. 2002) is given as “specifically increase CPAR currents; also recorded: specifically increase the currents of GluA2-lacking AMPA receptors”.

With `O=C(c1ccc2c(c1)OCCO2)N1CCCCC1` [CX546] the “immobility on the forced swim test” value (SNI-treated rats [4]) was “significantly decreases immobility; also recorded: improves performance on the forced swim test”, the analgesic effect (SNI-treated rats [2]; 2.5 mg/kg, SNI rats, vs DMSO) was “does not produce any statistically significant analgesic effect” and the mechanical allodynia (SNI-treated rats [2]; 5 mg/kg intraperitoneal, SNI rats, vs DMSO) was “successfully relieves mechanical allodynia; also recorded: relieve mechanical allodynia”. For the same compound, the mechanical allodynia (SNI-treated rats [2]; [9]) was “successfully relieves mechanical allodynia; also recorded: relieve mechanical allodynia” and the cold allodynia (SNI-treated rats [5]; [9]) was “relieves cold allodynia”.

In the case of `CC(C)S(=O)(=O)NC[C@H](C)c1ccc(-c2ccc(C#N)cc2)cc1` [LY451646], the antidepressant effects [6] is given as “antidepressant effects” and the “potentiation of CPARs and calcium impermeable AMPA receptors” value [3] is given as “potentiate both CPARs and calcium impermeable AMPA receptors”.

With `NCCCNCCCCNCCCNC(=O)Cc1cccc2ccccc12` [NASPM, 1-naphthyl acetyl spermine] the “sucrose preference (depression-like behavior)” value (SNI-treated rats [1]; [8]) was “decrease in sucrose preference; also recorded: enhance depression-like behavior; also recorded: significant further decline in their already reduced sucrose preference; also recorded: reduces sucrose preference”, the “average difference in sucrose preference between NASPM and saline treatment” value (SNI-treated rats [1]; based on preliminary data, used for power analysis, STD 0.15) was 0.2 and the “sucrose preference (depression-like behavior)” value (SNI-treated rats [1]; injected into NAc core, sham-treated rats) was “did not show this depression-like behavioral response”. The sensory hypersensitivity (SNI-treated rats [2]; SNI-treated rats) was “does not alter”, the mechanical hypersensitivity (SNI-treated rats [2]; [10]) was “does not change mechanical hypersensitivity; also recorded: did not alter; also recorded: no effects on mechanical hypersensitivity” and the cold hypersensitivity (SNI-treated rats [5]; [10]) was “did not alter”.

For `NC(=O)COc1c(F)cc(SCCNS(=O)(=O)c2ccccc2)cc1F` [PEPA, 4-[2-(phenylsulfonylamino)ethylthio]-2,6-difluorophenoxyacetamide], the antidepressant effects [6] is listed as “antidepressant effects” and the “potentiation of CPARs and calcium impermeable AMPA receptors” value [3] is listed as “potentiate both CPARs and calcium impermeable AMPA receptors”.

In the case of `CNC1(c2ccccc2Cl)CCCCC1=O` (stereo not shown) [ketamine], the sensory pain relief (SNI-treated rats [7]) is listed as “without exerting long lasting sensory pain relief”, the GluA1 levels (GluA1) is listed as “increase GluA1 levels” and the “antidepressant effect on pain-induced depression” value [6] is listed as “antidepressant properties in the SNI model”. For the same compound, the “antidepressant effect on pain-induced depression” value ([6]; listed as Ketamine) was “effectively treat pain-induced depression”.
